This is an account of results in article PMC8996149 (Acta Crystallographica. Section F, Structural Biology …, 2022).

Data set [1] concerns the target T1, SALDAP (Alpine soil metagenome-derived salicylaldehyde dehydrogenase) (soil metagenome, UniProt Z9QUQ6R3A5).
T1 construct: pLATE51, N-terminal 6xHis tag (no cleavage told), E. coli BL21 (DE3), purified; homodimer about 115 kDa; EC 1.2.1.65
Kind of data set: differential scanning fluorimetry (SYPRO Orange). The format is binding. To be noted: 2 mM ligand, 6 µM enzyme, 50 mM HEPES pH 7.4; no NAD+; untreated enzyme Tm 67.9 ± 0.17 °C. The text has this: differential scanning fluorimetry (SYPRO Orange) on SALDAP (Alpine soil metagenome-derived salicylaldehyde dehydrogenase)
For orientation: Differential scanning fluorimetry follows unfolding on heating by fluorescence.

The target of data set [2] is T1, SALDAP (Alpine soil metagenome-derived salicylaldehyde dehydrogenase). Kind of data set: X-ray crystal structure, […] Å. The format is binding. To be noted: active site, one ligand per monomer; ligand identity chosen by best fit to electron density (putative), no ligand added to the drop is told; pH 4.6.
Data set [3] deals with the molecule itself. Kind of data set: SEC; analytical gel filtration on Sephacryl S-300 (K 9/30 column), 50 mM Tris-HCl, 17 mM Tris base, 150 mM NaCl pH 7.4, calibrated with standard proteins; mass estimated from the elution volume.

Turning to `O=C(O)c1ccc(O)c(O)c1` [protocatechuic acid], in data set [1], the “Melting temperature (T m) (°C)” value is 69.2 ± 0.25 °C. In data set [2], the “X-ray crystal structure, 1.9 Å” value is reported as “protocatechuic acid (PCA) was chosen as the ligand bound to the active site”.

B1: Alpine soil metagenome-derived salicylaldehyde dehydrogenase (SALDAP) (enzyme)
chain: MRGLTVNFERINPMTNQTASTAKAMTAAEARAVADRAAAGFAGWSVLGPNARRAVLMKAAAALEARKDDFVQAMMAEIGATAGWAMFNLMLAASMIREAAALTTQIGGEVIPSDKPGCLALALREPVGVVLGIAPWNAPIILGVRAIAVPLACGNAVILKASEICPRTHGLIIESFAEAGFPEGVVNVVTNAPQDAGEVVGALIDHPAVKRINFTGSTGVGRIIAKRAAEHLKPCLLELGGKAPLVVLDDADLDEAAKAAAFGAFMNQGQICMSTERIIVVEAIAAEFTRRFAAKAQSMATGDPREGKTPLGAVVDRKTVDHVNTLIDDATAKGARIIAGGKGDSVLMSATVVDGVTAAMKLYRDESFGPIVGIIRAKDEADAVRLANDSEYGLAAAVFTRDTARGLRVARQIRSGICHINGPTVHDEAQMPFGGVGASGYGRFGGKAGIDQFTELRWITMETQPGHFPI
notes: salicylaldehyde dehydrogenase SALDAP (EC 1.2.1.65) from an alphaproteobacterium, gene found by gene-targeted assembly in an Alpine soil metagenome; The pLATE51 vector adds the N-terminal 6×His tag; also called 6×His-SALDAP; 6×His SALDAP; not shown: 6×His, N-terminal, kept
Consider B1, for which the “stoichiometry N” value in data set [3] was 2.

As a reminder, the stoichiometry N is a count of units in the complex or per binding partner.
